For the test, the target named is T1, FPRL-1 (Homo sapiens, UniProt P25090).
T1 construct: expressed in transfected cells
T1 sequence (P25090 1-351): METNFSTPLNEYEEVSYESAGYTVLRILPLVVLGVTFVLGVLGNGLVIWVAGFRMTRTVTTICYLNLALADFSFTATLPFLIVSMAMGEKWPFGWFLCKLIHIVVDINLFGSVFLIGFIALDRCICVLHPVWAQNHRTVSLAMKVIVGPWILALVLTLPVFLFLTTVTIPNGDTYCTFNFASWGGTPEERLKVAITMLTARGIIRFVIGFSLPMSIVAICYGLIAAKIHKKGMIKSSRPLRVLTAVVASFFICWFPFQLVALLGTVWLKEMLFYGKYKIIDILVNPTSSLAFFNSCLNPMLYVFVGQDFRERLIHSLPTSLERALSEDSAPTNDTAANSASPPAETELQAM
In words: compound-induced calcium activity on FLIPR Tetra in CHO-Ga16 cells stably expressing FPRL1. The format is cell-based. The note with it: for FPRL-1 Ga16-CHO (eff): efficacy value in brackets under EC50; for EC50: tested at 0.61 to 10,000 nM. As to the method: CHO-Ga16 cells stably expressing FPRL1 were cultured in (F12, 10% FBS, 1% PSA, 400 μg/ml geneticin and 50 μg/ml hygromycin) and HEK-Gqi5 cells stable expressing FPR1 were cultured in (DMEM high glucose, 10% FBS, 1% PSA, 400 μg/ml geneticin and 50 μg/ml hygromycin). In general, the day before the experiment, 18,000 cells/well were plated in a 384-well clear bottom poly-d-lysine coated plate. The following day the screening compound-induced calcium activity was assayed on the FLIPR^Tetra. The drug plates were prepared in 384-well microplates using the EP3 and the MultiPROBE robotic liquid handling systems. Compounds were tested at concentrations ranging from 0.61 to 10,000 nM. Results are expressed as EC50 (nM) and efficacy values.

The EC50 is the concentration giving half of the maximal effect.

As to `CSc1ccc(NC(=O)Nc2ccc3c(c2)C(=O)N(CCCN)[C@H](c2ccc(C#N)cc2)C3)cc1` [Compound 10, (S)-1-[2-(3-aminopropyl)-3-(4-cyanophenyl)-1-oxo-1,2,3,4-tetrahydroisoquinolin-7-yl]-3-[4-(methylthio)phenyl]urea], the “FPRL-1 Ga16-CHO (eff)” value was “(1.0)” and the concentration giving a half-maximal response (EC50) was found to be 0.299 µM.
In the same order, the values of `CCSc1ccc(NC(=O)Nc2ccc3c(c2)C(=O)N(CCCN)C(c2ccc(C#N)cc2)C3)cc1` (stereo not drawn) [Compound 9, 1-[2-(3-aminopropyl)-3-(4-cyanophenyl)-1-oxo-1,2,3,4-tetrahydroisoquinolin-7-yl]-3-[4-(ethylthio)phenyl]urea] are “(1.0)” and 0.023 µM.
Regarding `C[S+]([O-])c1ccc(NC(=O)Nc2ccc3c(c2)C(=O)N(CCc2c[nH]cn2)C(c2ccc(F)cn2)C3)cc1` (stereo not drawn) [Compound 31, 1-{3-(5-fluoropyridin-2-yl)-2-[2-(1H-imidazol-4-yl)ethyl]-1-oxo-1,2,3,4-tetrahydroisoquinolin-7-yl}-3-[4-(methylsulfinyl)phenyl]urea], the “FPRL-1 Ga16-CHO (eff)” value is on record as “(0.93)” and the EC50 was determined as 0.0118 µM.
For the compound `CS(=O)(=O)c1ccc(NC(=O)Nc2ccc3c(c2)C(=O)N(CCCN)[C@H](c2ccc(C#N)cc2)C3)cc1` [Compound 14, (S)-1-[2-(3-aminopropyl)-3-(4-cyanophenyl)-1-oxo-1,2,3,4-tetrahydroisoquinolin-7-yl]-3-[4-(methylsulfonyl)phenyl]urea], the “FPRL-1 Ga16-CHO (eff)” value was “(1.3)”.
Take `CSc1ccc(NC(=O)Nc2ccc3c(c2)C(=O)N(CCc2c[nH]cn2)C(c2ccc(Cl)cn2)C3)cc1` (stereo not drawn) [Compound 28, 1-{3-(5-chloropyridin-2-yl)-2-[2-(1H-imidazol-4-yl)ethyl]-1-oxo-1,2,3,4-tetrahydroisoquinolin-7-yl}-3-[4-(methylthio)phenyl]urea]: the “FPRL-1 Ga16-CHO (eff)” value is “(0.91)” and the EC50 was found to be 0.0135 µM.

The values are drawn from patent publication US8809367B2, “1-1-Oxo-1,2,3,4-tetrahydroisoquinolin-7-yl)urea derivatives as N-formyl peptide receptor like-1 (FPRL-1) receptor modulators” (Allergan, Inc., priority 2011, dated 2014).
